Read-outs that look alike come from different tables or passages of the source.

Data set [1] in a line: pKa values of end-capping agents. In kind it is physicochemical. The following applies: approximated based on the values of similar structures.
For data set [2] the following is noted: values taken from literature references (footnote); cited from earlier work.

As to `CC(C)(c1ccccc1)c1ccc(O)cc1` [p-cumylphenol], the pKa in data set [1] turned out to be 10.5.

Consider `COc1ccc(O)cc1` [p-methoxyphenol], for which the pKa in data set [2] is on record as 10.4.

The record behind these values is patent publication US9897551B2, “Method for accelerated degradation of thermoplastics” (priority 2013, dated 2018).
